Paper PMC3445516 (PLoS ONE, 2012)

What was measured:
Test in all cases: Ambit kinase profiling, competition binding
FLT3(N841I) = target: T1, FLT3(N841I) (Homo sapiens, UniProt P36888, N841I); conditions: compound concentration 10 uM, read-out: Percent Competition
T1 construct: purchased Ambit Biosciences (KINOMEscan)
Excerpt: (§1) Supplement pone.0044653.s004.xls, sheet "Compound 122" | column: Percent Competition

DLK = target: T2, DLK (Homo sapiens, UniProt Q12852); conditions: compound concentration 10 uM
T2 construct: purchased Ambit Biosciences (KINOMEscan)
Excerpt: as §1

PIP5K1A = target: T3, PIP5K1A (Homo sapiens, UniProt Q99755); conditions: compound concentration 10 uM, read-out: Percent Competition
T3 construct: purchased Ambit Biosciences (KINOMEscan)
Excerpt: as §1

INSRR = target: T4, INSRR (Homo sapiens, UniProt P14616); conditions: compound concentration 10 uM, read-out: Percent Competition
T4 construct: purchased Ambit Biosciences (KINOMEscan)
Excerpt: as §1

PYK2 = target: T5, PYK2 (Homo sapiens, UniProt Q14289); conditions: compound concentration 10 uM, read-out: Percent Competition
T5 construct: purchased Ambit Biosciences (KINOMEscan)
Excerpt: as §1

MYO3B = target: T6, MYO3B (Homo sapiens, UniProt Q8WXR4); conditions: compound concentration 10 uM, read-out: Percent Competition
T6 construct: purchased Ambit Biosciences (KINOMEscan)
Excerpt: as §1

INSR = target: T7, INSR (Homo sapiens, UniProt P06213); conditions: compound concentration 10 uM, read-out: Percent Competition
T7 construct: purchased Ambit Biosciences (KINOMEscan)
Excerpt: as §1

EPHA7 = target: T8, EPHA7 (Homo sapiens, UniProt Q15375); conditions: compound concentration 10 uM, read-out: Percent Competition
T8 construct: purchased Ambit Biosciences (KINOMEscan)
Excerpt: as §1

IKK-alpha = target: T9, IKK-alpha (Homo sapiens, UniProt O15111); conditions: compound concentration 10 uM, read-out: Percent Competition
T9 construct: purchased Ambit Biosciences (KINOMEscan)
Excerpt: as §1

EPHA4 = target: T10, EPHA4 (Homo sapiens, UniProt P54764); conditions: compound concentration 10 uM, read-out: Percent Competition
T10 construct: purchased Ambit Biosciences (KINOMEscan)
Excerpt: as §1

FLT1 = target: T11, FLT1 (Homo sapiens, UniProt P17948); conditions: compound concentration 10 uM, read-out: Percent Competition
T11 construct: purchased Ambit Biosciences (KINOMEscan)
Excerpt: as §1

IGF1R = target: T12, IGF1R (Homo sapiens, UniProt P08069); conditions: compound concentration 10 uM, read-out: Percent Competition
T12 construct: purchased Ambit Biosciences (KINOMEscan)
Excerpt: as §1

SgK110 = target: T13, SgK110 (Homo sapiens, UniProt P0C264); conditions: compound concentration 10 uM, read-out: Percent Competition
T13 construct: purchased Ambit Biosciences (KINOMEscan)
Excerpt: as §1

MERTK = target: T14, MERTK (Homo sapiens, UniProt Q12866); conditions: compound concentration 10 uM, read-out: Percent Competition
T14 construct: purchased Ambit Biosciences (KINOMEscan)
Excerpt: as §1

FAK = target: T15, FAK (Homo sapiens, UniProt Q05397); conditions: compound concentration 10 uM, read-out: Percent Competition
T15 construct: purchased Ambit Biosciences (KINOMEscan)
Excerpt: as §1

[1] = target: T16, RPS6KA2(Kin.Dom.1-N-terminal) (Homo sapiens, UniProt Q15349); conditions: compound concentration 10 uM, read-out: Percent Competition
T16 construct: RPS6KA2(Kin.Dom.1-N-terminal); purchased Ambit Biosciences (KINOMEscan)
Excerpt: as §1

FGFR2 = target: T17, FGFR2 (Homo sapiens, UniProt P21802); conditions: compound concentration 10 uM, read-out: Percent Competition
T17 construct: purchased Ambit Biosciences (KINOMEscan)
Excerpt: as §1

ANKK1 = target: T18, ANKK1 (Homo sapiens, UniProt Q8NFD2); conditions: compound concentration 10 uM, read-out: Percent Competition
T18 construct: purchased Ambit Biosciences (KINOMEscan)
Excerpt: as §1

MAP3K4 = target: T19, MAP3K4 (Homo sapiens, UniProt Q9Y6R4); conditions: compound concentration 10 uM, read-out: Percent Competition
T19 construct: purchased Ambit Biosciences (KINOMEscan)
Excerpt: as §1

CDK8 = target: T20, CDK8 (Homo sapiens, UniProt P49336); conditions: compound concentration 10 uM
T20 construct: purchased Ambit Biosciences (KINOMEscan)
Excerpt: as §1

AURKA = target: T21, AURKA (Homo sapiens, UniProt O14965); conditions: compound concentration 10 uM, read-out: Percent Competition
T21 construct: purchased Ambit Biosciences (KINOMEscan)
Excerpt: as §1

MET = target: T22, MET (Homo sapiens, UniProt P08581); conditions: compound concentration 10 uM
T22 construct: purchased Ambit Biosciences (KINOMEscan)
Excerpt: as §1

ITK = target: T23, ITK (Homo sapiens, UniProt Q08881); conditions: compound concentration 10 uM
T23 construct: purchased Ambit Biosciences (KINOMEscan)
Excerpt: as §1

SRPK1 = target: T24, SRPK1 (Homo sapiens, UniProt Q96SB4); conditions: compound concentration 10 uM, read-out: Percent Competition
T24 construct: purchased Ambit Biosciences (KINOMEscan)
Excerpt: as §1

NEK7 = target: T25, NEK7 (Homo sapiens, UniProt Q8TDX7); conditions: compound concentration 10 uM, read-out: Percent Competition
T25 construct: purchased Ambit Biosciences (KINOMEscan)
Excerpt: as §1

TLK1 = target: T26, TLK1 (Homo sapiens, UniProt Q9UKI8); conditions: compound concentration 10 uM, read-out: Percent Competition
T26 construct: purchased Ambit Biosciences (KINOMEscan)
Excerpt: as §1

LYN = target: T27, LYN (Homo sapiens, UniProt P07948); conditions: compound concentration 10 uM, read-out: Percent Competition
T27 construct: purchased Ambit Biosciences (KINOMEscan)
Excerpt: as §1

[2] = target: T28, RPS6KA4(Kin.Dom.1-N-terminal) (Homo sapiens, UniProt O75676); conditions: compound concentration 10 uM, read-out: Percent Competition
T28 construct: RPS6KA4(Kin.Dom.1-N-terminal); purchased Ambit Biosciences (KINOMEscan)
Excerpt: as §1

MARK4 = target: T29, MARK4 (Homo sapiens, UniProt Q96L34); conditions: compound concentration 10 uM
T29 construct: purchased Ambit Biosciences (KINOMEscan)
Excerpt: as §1

MARK1 = target: T30, MARK1 (Homo sapiens, UniProt Q9P0L2); conditions: compound concentration 10 uM, read-out: Percent Competition
T30 construct: purchased Ambit Biosciences (KINOMEscan)
Excerpt: as §1

[3] = target: T31, JAK1(JH1domain-catalytic) (Homo sapiens, UniProt P23458); conditions: compound concentration 10 uM
T31 construct: JAK1(JH1domain-catalytic); purchased Ambit Biosciences (KINOMEscan)
Excerpt: as §1

AMPK-alpha2 = target: T32, AMPK-alpha2 (Homo sapiens, UniProt P54646); conditions: compound concentration 10 uM, read-out: Percent Competition
T32 construct: purchased Ambit Biosciences (KINOMEscan)
Excerpt: as §1

CDC2L1 = target: T33, CDC2L1 (Homo sapiens, UniProt P21127); conditions: compound concentration 10 uM, read-out: Percent Competition
T33 construct: purchased Ambit Biosciences (KINOMEscan)
Excerpt: as §1

CSF1R = target: T34, CSF1R (Homo sapiens, UniProt P07333); conditions: compound concentration 10 uM, read-out: Percent Competition
T34 construct: purchased Ambit Biosciences (KINOMEscan)
Excerpt: as §1

FES = target: T35, FES (Homo sapiens, UniProt P07332); conditions: compound concentration 10 uM, read-out: Percent Competition
T35 construct: purchased Ambit Biosciences (KINOMEscan)
Excerpt: as §1

PAK6 = target: T36, PAK6 (Homo sapiens, UniProt Q9NQU5); conditions: compound concentration 10 uM, read-out: Percent Competition
T36 construct: purchased Ambit Biosciences (KINOMEscan)
Excerpt: as §1

FGFR4 = target: T37, FGFR4 (Homo sapiens, UniProt P22455); conditions: compound concentration 10 uM, read-out: Percent Competition
T37 construct: purchased Ambit Biosciences (KINOMEscan)
Excerpt: as §1

MKNK2 = target: T38, MKNK2 (Homo sapiens, UniProt Q9HBH9); conditions: compound concentration 10 uM, read-out: Percent Competition
T38 construct: purchased Ambit Biosciences (KINOMEscan)
Excerpt: as §1

CDK11 = target: T39, CDK11 (Homo sapiens, UniProt Q9BWU1); conditions: compound concentration 10 uM
T39 construct: purchased Ambit Biosciences (KINOMEscan)
Excerpt: as §1

KIT(V559D,T670I) = target: T40, KIT(V559D,T670I) (Homo sapiens, UniProt P10721, T670I/V559D); conditions: compound concentration 10 uM, read-out: Percent Competition
T40 construct: purchased Ambit Biosciences (KINOMEscan)
Excerpt: as §1

T17 sequence (P21802 22-821): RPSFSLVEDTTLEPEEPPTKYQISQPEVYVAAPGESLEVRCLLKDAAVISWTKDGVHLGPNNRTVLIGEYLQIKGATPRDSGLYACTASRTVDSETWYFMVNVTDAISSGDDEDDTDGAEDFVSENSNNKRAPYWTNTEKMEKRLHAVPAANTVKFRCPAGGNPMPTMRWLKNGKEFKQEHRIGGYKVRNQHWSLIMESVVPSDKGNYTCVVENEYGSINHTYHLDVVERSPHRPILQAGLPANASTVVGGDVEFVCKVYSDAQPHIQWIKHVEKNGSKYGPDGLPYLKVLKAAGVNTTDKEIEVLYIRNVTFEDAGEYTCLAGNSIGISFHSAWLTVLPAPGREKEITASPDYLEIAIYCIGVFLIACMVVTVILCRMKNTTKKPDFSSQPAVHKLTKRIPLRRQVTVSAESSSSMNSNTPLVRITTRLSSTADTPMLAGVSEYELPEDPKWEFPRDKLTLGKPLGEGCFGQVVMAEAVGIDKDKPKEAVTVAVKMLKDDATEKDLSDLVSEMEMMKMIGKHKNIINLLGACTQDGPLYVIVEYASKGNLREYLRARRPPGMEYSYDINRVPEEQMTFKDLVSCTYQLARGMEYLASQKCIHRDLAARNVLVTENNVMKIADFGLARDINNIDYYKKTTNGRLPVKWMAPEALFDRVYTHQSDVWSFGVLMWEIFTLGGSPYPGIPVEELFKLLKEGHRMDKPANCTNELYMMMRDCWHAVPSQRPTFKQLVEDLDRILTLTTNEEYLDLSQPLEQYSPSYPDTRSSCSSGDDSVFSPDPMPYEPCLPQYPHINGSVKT
T11 sequence (P17948 27-1338): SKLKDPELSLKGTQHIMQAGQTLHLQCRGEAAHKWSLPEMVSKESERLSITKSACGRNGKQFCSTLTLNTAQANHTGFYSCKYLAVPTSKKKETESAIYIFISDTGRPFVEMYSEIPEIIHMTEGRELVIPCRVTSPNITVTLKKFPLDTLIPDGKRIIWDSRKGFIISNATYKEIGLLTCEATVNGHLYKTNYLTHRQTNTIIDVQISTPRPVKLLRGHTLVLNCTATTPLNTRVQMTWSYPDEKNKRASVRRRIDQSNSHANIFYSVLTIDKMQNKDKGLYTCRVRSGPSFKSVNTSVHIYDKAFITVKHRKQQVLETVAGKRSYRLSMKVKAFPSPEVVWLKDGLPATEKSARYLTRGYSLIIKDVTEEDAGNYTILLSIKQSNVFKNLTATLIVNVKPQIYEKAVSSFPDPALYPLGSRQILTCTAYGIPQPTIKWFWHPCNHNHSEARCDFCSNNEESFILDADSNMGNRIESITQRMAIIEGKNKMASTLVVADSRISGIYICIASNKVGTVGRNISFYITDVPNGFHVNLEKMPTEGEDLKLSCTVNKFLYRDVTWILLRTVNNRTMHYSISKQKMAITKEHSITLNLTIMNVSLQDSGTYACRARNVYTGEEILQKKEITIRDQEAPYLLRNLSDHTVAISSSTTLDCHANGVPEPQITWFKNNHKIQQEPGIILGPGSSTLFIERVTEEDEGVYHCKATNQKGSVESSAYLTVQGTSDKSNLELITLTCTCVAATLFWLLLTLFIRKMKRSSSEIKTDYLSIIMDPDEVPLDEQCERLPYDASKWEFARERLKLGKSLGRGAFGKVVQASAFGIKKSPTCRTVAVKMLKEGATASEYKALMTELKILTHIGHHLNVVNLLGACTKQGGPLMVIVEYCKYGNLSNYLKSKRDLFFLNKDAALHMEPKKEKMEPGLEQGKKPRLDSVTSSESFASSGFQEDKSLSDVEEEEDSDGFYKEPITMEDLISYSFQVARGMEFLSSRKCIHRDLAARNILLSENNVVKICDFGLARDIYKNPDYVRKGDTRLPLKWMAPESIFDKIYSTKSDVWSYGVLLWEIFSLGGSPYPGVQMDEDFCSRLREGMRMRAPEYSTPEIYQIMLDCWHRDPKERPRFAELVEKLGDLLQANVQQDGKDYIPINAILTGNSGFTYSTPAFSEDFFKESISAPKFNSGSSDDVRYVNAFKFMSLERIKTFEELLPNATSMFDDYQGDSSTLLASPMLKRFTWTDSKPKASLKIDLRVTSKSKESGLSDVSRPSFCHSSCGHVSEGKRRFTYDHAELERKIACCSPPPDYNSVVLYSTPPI
T10 sequence (P54764 20-986): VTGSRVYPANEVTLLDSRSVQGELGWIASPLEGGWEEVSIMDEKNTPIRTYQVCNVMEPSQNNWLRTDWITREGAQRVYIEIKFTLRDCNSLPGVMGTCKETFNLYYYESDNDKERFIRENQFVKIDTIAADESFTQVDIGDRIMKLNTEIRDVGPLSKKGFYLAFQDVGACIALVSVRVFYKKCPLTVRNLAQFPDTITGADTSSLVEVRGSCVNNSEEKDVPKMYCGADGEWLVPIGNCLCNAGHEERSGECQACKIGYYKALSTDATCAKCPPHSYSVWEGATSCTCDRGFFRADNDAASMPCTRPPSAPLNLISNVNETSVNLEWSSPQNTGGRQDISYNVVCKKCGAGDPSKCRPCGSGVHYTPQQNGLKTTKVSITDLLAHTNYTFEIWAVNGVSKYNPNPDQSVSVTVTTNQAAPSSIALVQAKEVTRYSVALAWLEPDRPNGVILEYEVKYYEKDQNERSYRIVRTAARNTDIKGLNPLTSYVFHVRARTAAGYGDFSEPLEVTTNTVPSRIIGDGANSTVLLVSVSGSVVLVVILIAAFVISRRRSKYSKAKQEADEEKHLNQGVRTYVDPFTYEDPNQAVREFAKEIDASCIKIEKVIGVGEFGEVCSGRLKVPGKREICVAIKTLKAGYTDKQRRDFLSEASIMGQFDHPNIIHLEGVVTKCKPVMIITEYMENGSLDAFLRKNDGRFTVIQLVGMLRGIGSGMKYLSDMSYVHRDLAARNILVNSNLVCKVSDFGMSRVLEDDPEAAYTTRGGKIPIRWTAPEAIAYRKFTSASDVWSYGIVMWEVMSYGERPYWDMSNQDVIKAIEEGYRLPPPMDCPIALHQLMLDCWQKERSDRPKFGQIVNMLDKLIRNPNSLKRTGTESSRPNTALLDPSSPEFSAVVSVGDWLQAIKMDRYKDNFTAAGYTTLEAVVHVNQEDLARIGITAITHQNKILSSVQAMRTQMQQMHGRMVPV
T9 sequence (O15111 whole entry): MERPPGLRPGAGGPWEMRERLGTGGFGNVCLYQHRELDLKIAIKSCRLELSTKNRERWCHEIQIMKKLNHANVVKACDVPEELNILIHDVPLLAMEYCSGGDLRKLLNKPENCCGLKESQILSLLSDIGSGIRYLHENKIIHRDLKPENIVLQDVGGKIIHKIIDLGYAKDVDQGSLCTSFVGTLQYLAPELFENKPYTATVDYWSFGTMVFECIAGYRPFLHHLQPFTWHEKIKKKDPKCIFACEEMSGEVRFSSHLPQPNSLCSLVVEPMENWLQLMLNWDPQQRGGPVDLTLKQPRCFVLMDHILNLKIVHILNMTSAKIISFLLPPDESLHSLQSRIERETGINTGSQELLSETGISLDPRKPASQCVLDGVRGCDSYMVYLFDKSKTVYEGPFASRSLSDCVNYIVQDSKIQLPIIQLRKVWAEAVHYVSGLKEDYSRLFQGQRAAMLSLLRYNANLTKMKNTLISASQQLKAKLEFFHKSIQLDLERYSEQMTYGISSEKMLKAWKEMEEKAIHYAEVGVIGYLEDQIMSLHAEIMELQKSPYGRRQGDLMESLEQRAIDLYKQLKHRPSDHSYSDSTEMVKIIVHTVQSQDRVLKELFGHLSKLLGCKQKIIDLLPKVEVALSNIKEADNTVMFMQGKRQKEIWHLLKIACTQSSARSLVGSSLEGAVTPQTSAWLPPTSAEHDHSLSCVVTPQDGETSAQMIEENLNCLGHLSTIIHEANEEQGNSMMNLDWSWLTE
T18 sequence (Q8NFD2 whole entry): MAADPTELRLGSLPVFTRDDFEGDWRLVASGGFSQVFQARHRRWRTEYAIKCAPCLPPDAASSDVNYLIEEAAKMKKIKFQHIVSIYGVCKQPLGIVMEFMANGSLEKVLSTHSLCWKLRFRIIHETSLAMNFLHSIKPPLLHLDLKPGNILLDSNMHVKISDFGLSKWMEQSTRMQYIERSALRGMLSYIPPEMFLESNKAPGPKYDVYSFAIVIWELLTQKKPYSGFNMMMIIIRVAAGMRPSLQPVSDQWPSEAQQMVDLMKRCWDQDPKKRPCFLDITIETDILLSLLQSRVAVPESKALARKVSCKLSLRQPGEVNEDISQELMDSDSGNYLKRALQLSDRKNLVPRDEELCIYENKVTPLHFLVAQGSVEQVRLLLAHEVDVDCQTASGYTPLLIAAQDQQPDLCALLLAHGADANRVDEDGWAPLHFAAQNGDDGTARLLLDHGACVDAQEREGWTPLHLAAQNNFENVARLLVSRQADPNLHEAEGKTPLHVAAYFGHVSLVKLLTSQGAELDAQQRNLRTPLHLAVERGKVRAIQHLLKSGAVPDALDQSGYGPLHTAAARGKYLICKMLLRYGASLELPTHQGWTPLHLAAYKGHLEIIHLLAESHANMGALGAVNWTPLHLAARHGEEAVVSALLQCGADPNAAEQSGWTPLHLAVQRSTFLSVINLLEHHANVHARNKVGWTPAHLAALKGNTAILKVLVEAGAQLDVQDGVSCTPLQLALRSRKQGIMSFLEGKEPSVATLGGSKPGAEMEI
T38 sequence (Q9HBH9 whole entry): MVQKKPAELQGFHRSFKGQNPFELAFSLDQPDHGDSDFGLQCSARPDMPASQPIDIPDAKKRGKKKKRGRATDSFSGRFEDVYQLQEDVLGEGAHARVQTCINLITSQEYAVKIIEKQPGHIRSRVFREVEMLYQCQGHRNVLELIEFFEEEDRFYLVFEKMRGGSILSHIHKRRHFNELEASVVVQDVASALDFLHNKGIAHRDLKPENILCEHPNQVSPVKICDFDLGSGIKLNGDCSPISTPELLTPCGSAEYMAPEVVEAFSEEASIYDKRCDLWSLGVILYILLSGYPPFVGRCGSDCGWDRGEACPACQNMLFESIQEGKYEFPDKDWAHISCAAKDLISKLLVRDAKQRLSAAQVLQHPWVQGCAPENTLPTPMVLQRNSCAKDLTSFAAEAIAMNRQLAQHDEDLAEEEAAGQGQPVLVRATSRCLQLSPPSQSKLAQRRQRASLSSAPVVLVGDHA

Structure (SMILES): Fc1ccc(-c2c(-c3ccncc3)[nH]c3nccnc23)cc1 [RO1155697-000-005]
- inhibition at 10 µM (FLT3(N841I)): < 50%
- Percent Competition (DLK): <50%
- inhibition at 10 µM (PIP5K1A): < 50%
- inhibition at 10 µM (INSRR): < 50%
- inhibition at 10 µM (PYK2): < 50%
- inhibition at 10 µM (MYO3B): < 50%
- inhibition at 10 µM (INSR): < 50%
- inhibition at 10 µM (EPHA7): < 50%
- inhibition at 10 µM (IKK-alpha): < 50%
- inhibition at 10 µM (EPHA4): < 50%
- inhibition at 10 µM (FLT1): < 50%
- inhibition at 10 µM (IGF1R): < 50%
- inhibition at 10 µM (SgK110): < 50%
- inhibition at 10 µM (MERTK): < 50%
- inhibition at 10 µM (FAK): < 50%
- inhibition at 10 µM [1]: < 50%
- inhibition at 10 µM (FGFR2): < 50%
- inhibition at 10 µM (ANKK1): < 50%
- inhibition at 10 µM (MAP3K4): < 50%
- Percent Competition (CDK8): <50%
- inhibition at 10 µM (AURKA): < 50%
- Percent Competition (MET): <50%
- Percent Competition (ITK): <50%
- inhibition at 10 µM (SRPK1): < 50%
- inhibition at 10 µM (NEK7): < 50%
- inhibition at 10 µM (TLK1): < 50%
- inhibition at 10 µM (LYN): < 50%
- inhibition at 10 µM [2]: < 50%
- Percent Competition (MARK4): <50%
- inhibition at 10 µM (MARK1): < 50%
- Percent Competition [3]: <50%
- inhibition at 10 µM (AMPK-alpha2): < 50%
- inhibition at 10 µM (CDC2L1): 91%
- inhibition at 10 µM (CSF1R): < 50%
- inhibition at 10 µM (FES): < 50%
- inhibition at 10 µM (PAK6): < 50%
- inhibition at 10 µM (FGFR4): < 50%
- inhibition at 10 µM (MKNK2): < 50%
- Percent Competition (CDK11): <50%
- inhibition at 10 µM (KIT(V559D,T670I)): < 50%
